Data from the Deep4Chem optical property database.
Values joined by “and” are separate entries in the source; they are usually repeats but may differ in a detail not shown here. Equal values may be shown once. Values belong to the compound of their own block, whether it stands above or below them.

Assay: photoluminescence quantum yield (fraction); solvent given as SMILES

photoluminescence quantum yield (in C1CCCCC1): 0.02 | photoluminescence quantum yield (in CO): 0.73 | photoluminescence quantum yield (in CS(C)=O): 0.83 | photoluminescence quantum yield (in ClC(Cl)Cl): 0.52 | photoluminescence quantum yield (in c1ccccc1): 0.1
SMILES: CCCCCCCC1=C(C)C(=O)n2c1cc1[nH]c(C(=O)OC)c(C)c1c2=O

photoluminescence quantum yield (in CCCCCC): 0.34 | photoluminescence quantum yield (in CO): 0.28 | photoluminescence quantum yield (in ClCCl): 0.45
SMILES: Cc1ccc2ccc3cccc4ccc1c2c34

photoluminescence quantum yield (in CC#N): 0.4
SMILES: CCOC(=O)c1c2c3c(ccc(C)c3c3cc4c(cc13)[Si](C)(C)O[Si]4(C)C)N(C)C2=O

SMILES: CC(C)[Si]1(C(C)C)c2ccccc2-c2ccc(N(C)C)cc21
photoluminescence quantum yield (in C1CCCCC1): 0.26 | photoluminescence quantum yield (in CC#N): 0.28 | photoluminescence quantum yield (in CCO): 0.11 | photoluminescence quantum yield (in CCOCC): 0.22 | photoluminescence quantum yield (in CS(C)=O): 0.12 | photoluminescence quantum yield (in ClCCl): 0.13 | photoluminescence quantum yield (in c1ccccc1): 0.22

photoluminescence quantum yield (in ClCCl): 0.9
SMILES: F[B-]1(F)n2c(cc3c4ccccc4c4ccccc4c32)-c2ccc3ccccc3[n+]21

SMILES: c1ccc(-c2cc(-c3ccc4ccc5c(-c6ccnc(-c7ccccn7)c6)ccc6ccc3c4c65)ccn2)nc1
photoluminescence quantum yield (in C1CCOC1): 0.65 | photoluminescence quantum yield (in CC#N): 0.56 | photoluminescence quantum yield (in CCC#N): 0.56 | photoluminescence quantum yield (in CCCC#N): 0.58 | photoluminescence quantum yield (in CCCCCC): 0.6 | photoluminescence quantum yield (in CCCO): 0.38 | photoluminescence quantum yield (in CCO): 0.39 | photoluminescence quantum yield (in CO): 0.27 | photoluminescence quantum yield (in Cc1ccccc1): 0.56

photoluminescence quantum yield (in C1COCCO1): 0.73
SMILES: c1ccc(-c2nc(-c3ccc(-c4ccc(-c5ccc(-c6nc(-c7ccccc7)c(-c7ccccc7)o6)cc5)cc4)cc3)oc2-c2ccccc2)cc1

SMILES: CC[N+]1(CC)CN2C(=N1)C(C(=O)O)=Cc1c2ccc2ccccc12
photoluminescence quantum yield (in O): 0.711

photoluminescence quantum yield (in C1CCCCC1): 0.38 | photoluminescence quantum yield (in CC#N): 0.52 | photoluminescence quantum yield (in CO): 0.3 | photoluminescence quantum yield (in ClC(Cl)Cl): 0.07
SMILES: NCc1ccc2ccc3cccc4ccc1c2c34

SMILES: CC1(C)c2ccccc2N(c2ccc(-c3nc(C#N)c(C#N)nc3-c3ccc(N4c5ccccc5C(C)(C)c5ccccc54)cc3)cc2)c2ccccc21
photoluminescence quantum yield (in Cc1ccccc1): 0.2 | photoluminescence quantum yield (in c1cc(-c2cccc(-n3c4ccccc4c4ccccc43)c2)cc(-n2c3ccccc3c3ccccc32)c1): 0.67

photoluminescence quantum yield (in C1CCCCC1): 0.03 | photoluminescence quantum yield (in CO): 0.66 | photoluminescence quantum yield (in CS(C)=O): 0.8 | photoluminescence quantum yield (in ClC(Cl)Cl): 0.71 | photoluminescence quantum yield (in c1ccccc1): 0.18
SMILES: CCC1=C(C)C(=O)n2c1cc1c(c(C)c(C(=O)OC)n1C)c2=O

photoluminescence quantum yield (in CCCCCC): 0.22
SMILES: CC(C)[Si](C#Cc1c2cc3ccccc3cc2c(C#C[Si](C(C)C)(C(C)C)C(C)C)c2nc3c(ccc4ccccc43)nc12)(C(C)C)C(C)C

SMILES: CCn1c2ccccc2c2cc(-c3cc(-c4ccc5c(c4)c4ccccc4n5CC)nc(OC)n3)ccc21
photoluminescence quantum yield (in C1CCOC1): 0.48 | photoluminescence quantum yield (in CCOC(C)=O): 0.76 | photoluminescence quantum yield (in CN(C)C=O): 0.69 | photoluminescence quantum yield (in Cc1ccccc1): 0.68 | photoluminescence quantum yield (in ClCCl): 0.69

photoluminescence quantum yield (in C1CCOC1): 0.091
SMILES: Cc1cc(C)c(C2=C(c3c(C)sc(-c4ccc(-c5nc(-c6ccccc6)c(-c6ccccc6)[nH]5)cc4)c3C)C(F)(F)C(F)(F)C2(F)F)s1

photoluminescence quantum yield (in C1COCCO1): 0.55 | photoluminescence quantum yield (in CC#N): 0.32 | photoluminescence quantum yield (in CCCCCCC): 0.78 | photoluminescence quantum yield (in CO): 0.02
SMILES: C(/C=C/c1ccc(-n2c3ccccc3c3ccccc32)cc1)=C\c1ccncc1

SMILES: N#Cc1c(N2c3ccccc3C(c3ccccc3)(c3ccccc3)c3ccccc32)cccc1N1c2ccccc2C(c2ccccc2)(c2ccccc2)c2ccccc21
photoluminescence quantum yield (in Cc1ccccc1): 0.67

SMILES: c1ccc(-c2nc3ccccc3nc2-c2ccc(-n3c4ccccc4c4ccccc43)cc2)cc1
photoluminescence quantum yield (in Cc1ccccc1): 0.32

photoluminescence quantum yield (in C1CCOC1): 0.12 | photoluminescence quantum yield (in CC#N): 0.02 | photoluminescence quantum yield (in CCCCCC): 0.43
SMILES: CC1=N/C(=C\c2cccc(N(C)C)c2)C(=O)N1CCO

photoluminescence quantum yield (in CC#N): 0.28 | photoluminescence quantum yield (in CCCCCC): 0.35
SMILES: C/C=C/c1ccc(OC)c(OC)c1

photoluminescence quantum yield (in CCOC(C)=O): 0.61
SMILES: O=Cc1cc2c(cc3ccc4cccc5ccc2c3c45)[nH]1

photoluminescence quantum yield (in CCO): 0.3 | photoluminescence quantum yield (in ClCCl): 0.83
SMILES: CCN(CC)c1ccc2cc(C#N)/c(=N\C(=O)c3ccc(F)cc3)oc2c1

photoluminescence quantum yield (in ClC(Cl)Cl): 0.47
SMILES: F[B-]1(F)n2c(cc(Br)c2Br)C(c2ccccc2)=C2C=C(Br)C(c3ccc[nH]3)=[N+]21

photoluminescence quantum yield (in CCO): 0.49 | photoluminescence quantum yield (in O): 0.13
SMILES: O=C(O)COc1cccc(OCC(=O)O)c1-c1c2ccc(=[N+]3CCCCC3)cc-2oc2cc(N3CCCCC3)ccc12

photoluminescence quantum yield (in CC#N): 0.11 | photoluminescence quantum yield (in CCCCCC): 0.12 | photoluminescence quantum yield (in CCOC(C)=O): 0.11 | photoluminescence quantum yield (in CO): 0.14 | photoluminescence quantum yield (in ClCCl): 0.2
SMILES: COC1=[N+]2C(=C(c3ccccc3)c3ccc(OC)n3[B-]2(F)F)C=C1

SMILES: CN(C)c1ccc2c(c1)COc1c-2oc2ccccc2c1=O
photoluminescence quantum yield (in C1CCCCC1): 0.5 | photoluminescence quantum yield (in C1CCOC1): 0.91 | photoluminescence quantum yield (in CC#N): 0.86 | photoluminescence quantum yield (in CCOC(C)=O): 0.95 | photoluminescence quantum yield (in CCOCC): 1 | photoluminescence quantum yield (in CO): 0.68 | photoluminescence quantum yield (in Cc1ccccc1): 1

photoluminescence quantum yield (in ClC(Cl)Cl): 0.957
SMILES: Cc1ccc(-n2c3ccccc3c3cc(-c4ccc5[n+](c4)[B-](F)(F)n4c-5nc5c6ccccc6c6ccccc6c54)ccc32)cc1

photoluminescence quantum yield (in ClCCl): 0.22
SMILES: CN(C)c1ccc(/C=C/c2cc(/C=C/c3ccc(N(C)C)cc3)nc(/C=C/c3ccc(N(C)C)cc3)n2)cc1

SMILES: COc1ccc(-c2nnc(-c3cc(-n4c5ccccc5c5ccccc54)c(-n4c5ccccc5c5ccccc54)cc3-c3nnc(-c4ccc(OC)cc4)o3)o2)cc1
photoluminescence quantum yield (in Cc1ccccc1): 0.47

photoluminescence quantum yield (in ClCCl): 0.2
SMILES: c1ccc([B-]23Oc4ccccc4-c4c5[n+]6c(c([n+]42)-c2ccccc2O3)-c2ccccc2O[B-]6(c2ccccc2)Oc2ccccc2-5)cc1

photoluminescence quantum yield (in ClC(Cl)Cl): 0.639
SMILES: CN1CCc2cc(C3=Cc4cccc[n+]4[B-](F)(F)O3)ccc21

photoluminescence quantum yield (in ClCCl): 0.32
SMILES: C(=C\c1cccc2ccccc12)/c1ncc(-c2ccccc2)o1

photoluminescence quantum yield (in CCO): 0.033 | photoluminescence quantum yield (in ClCCl): 0.9
SMILES: CCN(CC)c1ccc2cc(C#N)/c(=N\C(=O)c3ccco3)oc2c1

photoluminescence quantum yield (in CC#N): 0.85
SMILES: CCN(CC)c1ccc2cc(/C=C/c3ccccc3)c(=O)oc2c1

photoluminescence quantum yield (in ClCCl): 0.39
SMILES: COc1ccc(/C=C/C2=[O+][B-](F)(F)OC(/C=C/c3ccc(OC)cc3)=C2c2ccc(OC)cc2)cc1

photoluminescence quantum yield (in C1CCCCC1): 0.28 | photoluminescence quantum yield (in C1CCOC1): 0.39 | photoluminescence quantum yield (in C1COCCO1): 0.44 | photoluminescence quantum yield (in CC#N): 0.49 | photoluminescence quantum yield (in CC(C)O): 0.39 | photoluminescence quantum yield (in CCCCCC): 0.25 | photoluminescence quantum yield (in CN(C)C=O): 0.34 | photoluminescence quantum yield (in CO): 0.57 | photoluminescence quantum yield (in c1ccccc1): 0.28
SMILES: CC1(C)Oc2c(c3nc4ccccc4nc3c3ccccc23)CC1Br (stereo unspecified)

photoluminescence quantum yield (in CC#N): 0.5 | photoluminescence quantum yield (in CCCCCC): 0.32 | photoluminescence quantum yield (in CO): 0.45 | photoluminescence quantum yield (in c1ccccc1): 0.46 and 0.534
SMILES: O=c1oc2c(ccc3ccccc32)nc1-c1ccccc1

photoluminescence quantum yield (in ClC(Cl)Cl): 0.03
SMILES: CCCCCCN1C(=O)c2cccc3cc(/N=C\c4cn(C)c5ccccc45)cc(c23)C1=O

photoluminescence quantum yield (in ClCCl): 0.48
SMILES: COc1ccc(C2=C(c3ccc(OC)cc3)c3cccc4c3c(cc3nc5ccccc5nc34)O2)cc1

photoluminescence quantum yield (in C1CCCCC1): 0.96
SMILES: CC[Si](CC)(CC)Oc1cccc(O[Si](CC)(CC)CC)c1-c1c2ccccc2c(-c2c(O[Si](CC)(CC)CC)cccc2O[Si](CC)(CC)CC)c2ccccc12

photoluminescence quantum yield (in CN(C)C=O): 0.197
SMILES: CCN(CC)c1ccc(-c2nc(Oc3ccc(-c4nc5ccccc5[nH]4)cc3)nc(Oc3ccc(-c4nc5ccccc5[nH]4)cc3)n2)cc1

SMILES: CCCCCCc1ccc(-n2c3[n+](c4c5ccccc5c5ccccc5c42)[B-](C)(C)c2ccccc2-3)cc1
photoluminescence quantum yield (in C1CCOC1): 0.45 | photoluminescence quantum yield (in CC#N): 0.28 | photoluminescence quantum yield (in Cc1ccccc1): 0.46 | photoluminescence quantum yield (in ClCCl): 0.38

photoluminescence quantum yield (in CCO): 0.23
SMILES: CN(C)c1ccc(-c2ccc(C#N)s2)s1

SMILES: CCC1(CC)c2cc(C=O)ccc2-c2ccc(N(C)C)cc21
photoluminescence quantum yield (in C1CCCCC1): 0.02 | photoluminescence quantum yield (in CC#N): 0.81 | photoluminescence quantum yield (in CCO): 0.64 | photoluminescence quantum yield (in CCOCC): 0.71 | photoluminescence quantum yield (in CS(C)=O): 0.92 | photoluminescence quantum yield (in ClCCl): 0.91 | photoluminescence quantum yield (in c1ccccc1): 0.82

photoluminescence quantum yield (in ClC(Cl)Cl): 0.98
SMILES: F[B-]1(F)n2c(cc(Br)c2Br)C(c2ccccc2)=C2C=C(Br)C(Br)=[N+]21

photoluminescence quantum yield (in CS(C)=O): 0.014
SMILES: O=C1CCCC2=C1C(c1ccc([N+](=O)[O-])cc1)c1c(c3ccccc3oc1=O)N2 (stereo unspecified)

photoluminescence quantum yield (in C1CCOC1): 0.45 | photoluminescence quantum yield (in CC#N): 0.31 | photoluminescence quantum yield (in CC(C)O): 0.23 | photoluminescence quantum yield (in CCCCO): 0.17 | photoluminescence quantum yield (in CCO): 0.18 | photoluminescence quantum yield (in CO): 0.18 | photoluminescence quantum yield (in ClCCl): 0.32 | photoluminescence quantum yield (in O): 0.41
SMILES: COc1ccc2cc([C@H](C)C(=O)O)ccc2c1

SMILES: [O-]c1ccccc1-c1[nH+]c2c3ccccc3c3ccccc3c2o1
photoluminescence quantum yield (in Cc1ccccc1): 0.111

photoluminescence quantum yield (in CS(C)=O): 0.96
SMILES: Cc1ccc(-c2nc(-c3ccc(-c4nc(-c5ccc(C)cc5)c(-c5ccc(C)cc5)[nH]4)cc3)[nH]c2-c2ccc(C)cc2)cc1

photoluminescence quantum yield (in C1CCOC1): 0.13 | photoluminescence quantum yield (in CC#N): 0.04 | photoluminescence quantum yield (in CCCCCC): 0.45
SMILES: COCCN1C(=O)/C(=C/c2cccc(N(C)C)c2)N=C1C

photoluminescence quantum yield (in C1CCOC1): 0.63
SMILES: CCCCOc1cc2ccccc2c2c1oc1cc3ccccc3cc12

SMILES: CC1(C)c2ccccc2N(c2ccc3c(c2)c2cc(N4c5ccccc5C(C)(C)c5ccccc54)cc4c5ccccc5n3c42)c2ccccc21
photoluminescence quantum yield (in O=P(c1ccccc1)(c1ccccc1)c1ccccc1Oc1ccccc1P(=O)(c1ccccc1)c1ccccc1): 0.96

photoluminescence quantum yield (in C1CCCCC1): 0.96 | photoluminescence quantum yield (in CCOC(C)=O): 0.73 | photoluminescence quantum yield (in CO): 0.29
SMILES: CCCCCCOc1ccc2oc3c(c2c1)=CC1=C(c2ccccc2C)c2cc4c5cc(OCCCCCC)ccc5oc4n2[B-](F)(F)[N+]=31

photoluminescence quantum yield (in ClCCl): 0.25
SMILES: CCCCN(CCCC)c1ccc(C#Cc2cc(C#Cc3cc(C(F)(F)F)cc(C(F)(F)F)c3)c(C#Cc3ccc(N(CCCC)CCCC)cc3)cc2C#Cc2cc(C(F)(F)F)cc(C(F)(F)F)c2)cc1

photoluminescence quantum yield (in CCO): 0.005
SMILES: CC1(C)CC(/C=C/c2ccc(-n3c4ccccc4c4ccccc43)cc2)=CC(=C(C#N)C#N)C1
